This is an account of results in publication PMC10363480 (Plant Communications, 2023).

“Also recorded” adds a separate entry of the source.

In the first test the test system is mitochondria or chloroplast of Chlamydomonas reinhardtii. As to the kind of experiment: Subcellular localization of Venus reporter by epifluorescence microscopy (manual targeting assignment). The settings on record: 15 N-terminal residues of RCA1-cTP added, no C-terminal element; Figure 2. It is filed as cell-based. An excerpt:
In a bid to keep peptidase recognition sites intact, C-terminal elements were designed to start 10 residues upstream of the cleavage site, even though this slightly truncates TP helices. Peptides carrying the 15-amino-acid cTP N-terminus (cTP-N) will be denoted ^cP. Similarly, peptides with C-terminal elements from RCA1-cTP (cTP-C) or CAG2-mTP (mTP-C) will be denoted P^c or P^m, respectively. Peptide variants are used to drive the subcellular localization of a Venus fluorescent reporter protein, which was assessed using fluorescence microscopy; in Figure 2, an executive overview of observed Venus localization is presented for all constructs. […] Here, we use automated image segmentation to validate our subcellular localization assessment (Supplemental Figure 2, Supplemental text). […] The reader will be asked to return to Figure 2 throughout, with Figures 3 and 4 providing selected micrographs as examples highlighting particular points of interest.
Chlamydomonas TP sequences were amplified from genomic DNA extracted from strain T222+ (CC-5101). Templates for codon-optimized HA-RAMP, RP, and R→K modified TP sequences were obtained by gene synthesis (Eurofins Genomics). Correct assembly was verified by sequencing (Eurofins Genomics). Linear transformation cassettes were generated through restriction digestion with EcoRV (New England Biolabs).
Constructs were transformed into wild-type strain T222+ (CC-5101) using a protocol described previously ([Onishi and Pringle, 2016]), except using 4 μl of DNA at 2 μg/μl.
Strains with suspected mitochondrial targeting were treated with 0.1 μM MitoTracker Red CMXRos (Thermo Fisher Scientific) in growth medium for 30 min in the dark and washed with TAP prior to taking images.
Legend for Fig. S3 – S20. Three independent transformant lines (Strains 1-3) are shown for each combination of modifications (A-L), represented by a cartoon and a shorthand description (cf. Fig.
2). Where a construct was interpreted as generating reporter localization in mitochondria or […]
Epifluorescence microscopy images of typical cells for each strain are shown. MitoTracker fluorescence, false-coloured in cyan, indicates the position of mitochondria (although parts of the cell exterior are sometimes also stained). False-coloured yellow fluorescence from the Venus channel reports on the subcellular localization of the fluorescent reporter. Chlorophyll autofluorescence, shown in magenta, indicates the location of the chloroplast. Scale bars are 5µm. Brightness (Br.) was adjusted for clarity: fluorescence intensity values were restricted to the range shown for each channel by matching coloured rectangles. Intensity scales to 0 at the bottom of the panel, and to 65535 at the top.
On the right-hand side, quantitative information associated with each construct is shown. Data was normalized such that averages range from 0 to 1 across all constructs (cf. Fig S2). Individual cell measurements may exceed this range; for clarity, the range shown here is limited to -0.5 to 1.5, with outliers that have more extreme values shown as lying beyond a dashed line. Strain 1 is plotted as circles, strain 2 as squares, and strain 3 as diamonds. Venus: Fluorescence plate reader data of transformants screened for this construct (Venus fluorescence, accounting for cell density using linear regression of OD750 and chlorophyll fluorescence trained on ‘no venus’ control transformants). Transformants that were not selected after screening are shown as small grey circles. A colour code ranging from white (low Venus fluorescence) to black (high Venus fluorescence) is used for strains 1-3 and the average thereof. Automated image quantification data: pyr/chl: Venus channel signal in the pyrenoid relative to in the chlorophyll region; mt/cell: Venus channel signal in mitochondria relative to the whole cell. Each point corresponds to a single cell.
The colour code code is the same as that below distributions in Fig. S2, i.e. blue highlights the […]
“GKIPVKAIKKAGAAIGKGLRAINIASTAHDVYSFFKPKHKKK [SIM, SI moricin, HA-RAMP antimicrobial peptide, reference compound]”: the “chloroplast targeting upon sole addition of cTP-N (^cP)” value is given as “at least partial chloroplast targeting; also recorded: generated chloroplast targeting”.

Staying with this test, now noted: C-terminal element of RCA1-cTP added to the named peptide; Figure 2 rows E and F; bare name = K and R versions.
In the case of “KYYGNGVSCNKKGCSVDWGKAIGIIGNNAAANLTTGGKAGWKG [EHF, enterocin HF, HA-RAMP antimicrobial peptide, reference compound]”, the “chloroplast targeting upon addition of cTP-C (P^c)” value was “enabled chloroplast targeting”.

Still in this test, the particulars now being: Figure 2; bare name = K and R versions.
For the sequence “KYYGNGVSCNKKGCSVDWGKAIGIIGNNAAANLTTGGKAGWKG [EHF, enterocin HF, HA-RAMP antimicrobial peptide, reference compound]”, the “targeting when combining cTP-N with mTP-C (^cP^m)” value was “chloroplast targeting”.

On to “GKIPVKAIKKAGAAIGKGLRAINIASTAHDVYSFFKPKHKKK [SIM, SI moricin, HA-RAMP antimicrobial peptide, reference compound]”, for which the “targeting when combining cTP-N with mTP-C (^cP^m)” value is “chloroplast targeting”.

The same test, now with this note: manual targeting assignment of the Venus reporter construct in Chlamydomonas: Neither / Mitochondria / Chloroplast / Dual, (partial) = partial targeting.
For the sequence “MQVTMKSSAVSGQRVMGLLLDTLRGAARDIAGIALERLRCRITGCRP [c.R2G.R]”, the Localisation entry is on record as “Mitochondria”.

Consider “MGWIRDFGRRIERVGQHTRDATIQTIAVAQQAANVAATLRGSVRRAQLQVVASSRKQMGRWRSIDAGVDASDDQ [S1D.R.c]”, for which the Localisation entry was “Chloroplast (partial)”.

In the case of “MQVTMKSSAVSGQRVMLKRVGQSLVPFARAGLTQTAESFRGVSSQFFDAPNGPSVKQVLIEDEW [c.MH.R.m]”, the Localisation result was “Neither”.

Regarding “MALWRTMLRRLGTMALHAGRAAFGAAADTISQSVRRAQLQVVASSRKQMGRWRSIDAGVDASDDQ [DDM.R.c]”, the Localisation result is on record as “Neither”.

Turning to “MQVTMKSSAVSGQRVALWRTMLRRLGTMALHAGRAAFGAAADTISQLTQTAESFRGVSSQFFDAPNGPSVKQVLIEDEW [c.DDM.R.m]”, the Localisation entry was “Neither”.

On to “MQVTMKSSAVSGQKVGGAKVATKSVKKAQLQVVASSKKQMGKWKSIDAGVDASDDQ [c.CH.K.c]”, for which the Localisation entry was “Chloroplast (partial)”.

Turning to “MSFLTTFRDLAIRAARSAGQSVLSTLSCRLSNTCLTQTAESFRGVSSQFFDAPNGPSVKQVLIEDEW [B2I.R.m]”, the Localisation result is “Mitochondria”.

“MLKKVGQSLVPFAKAGSVRRAQLQVVASSRKQMGRWRSIDAGVDASDDQ [MH.K.c]”: the Localisation result is given as “Dual”.

“MLKKVGQSLVPFAKAGLTQTAESFKGVSSQFFDAPNGPSVKQVLIEDEW [MH.K.m]”: the Localisation result is given as “Neither”.

For the sequence “MGRIPVRAIRRAGAAIGRGLRAINIASTAHDVYSFFRPRHRRRSVRRAQLQVVASSRKQMGRWRSIDAGVDASDDQ [SIM.R.c]”, the Localisation entry is “Neither”.

With “MQVTMKSSAVSGQRVLTQTAESFRGVSSQFFDAPNGPSVKQVLIEDEW [c.-.m]”, the Localisation entry was “Neither”.

Take “MQVTMKSSAVSGQRVMGWIRDFGRRIERVGQHTRDATIQTIAVAQQAANVAATLRG [c.S1D.R]”: the Localisation entry was “Mitochondria”.

The test is the same for the next values; noted with them: peptide-Venus reporter construct expressed in Chlamydomonas reinhardtii; manual targeting assignment (Neither / Mitochondria / Chloroplast / Dual; partial = partial targeting).
“MKYYGNGVHCTKSGCSVNWGEAFSAGVHRLANGGNGFWLTQTAESFRGVSSQFFDAPNGPSVKQVLIEDEW [LCA.K.m]”: the Localisation entry is “Neither”.

For the sequence “MFLPLLAGLAANFLPKIFCKITRKCLTQTAESFRGVSSQFFDAPNGPSVKQVLIEDEW [B1E.K.m]”, the Localisation result is “Neither”.

Turning to “MFLPLLAGLAANFLPKIFCKITRKCSVRRAQLQVVASSRKQMGRWRSIDAGVDASDDQ [B1E.K.c]”, the Localisation entry is listed as “Neither”.

As for “MQVTMKSSAVSGQRVALWMTLLRRVLRAAARAALNAVLVGANA [c.DS4.R]”, the Localisation result is “Neither”.

With “MQVTMKSSAVSGQRVMVNYGNGVSCSKTKCSVNWGIITHQAFRVTSGVASGSVRRAQLQVVASSRKQMGRWRSIDAGVDASDDQ [c.B15.K.c]”, the Localisation entry is recorded as “Chloroplast”.

Take “MQVTMKSSAVSGQRVGIGKFLHSAKKFGKAFVGEIMNS [c.MII.K]”: the Localisation entry is listed as “Mitochondria”.

On to “MKYYGNGVHCTRSGCSVNWGEAFSAGVHRLANGGNGFWSVRRAQLQVVASSRKQMGRWRSIDAGVDASDDQ [LCA.R.c]”, for which the Localisation result was “Chloroplast (partial)”.

“MVNYGNGVSCSKTKCSVNWGIITHQAFRVTSGVASGLTQTAESFRGVSSQFFDAPNGPSVKQVLIEDEW [B15.K.m]”: the Localisation entry is “Neither”.

In the case of “MQVTMKSSAVSGQRVMVNYGNGVSCSRTRCSVNWGIITHQAFRVTSGVASG [c.B15.R]”, the Localisation entry is “Chloroplast”.

Turning to “MGIGRFLHSARRFGRAFVGEIMNSLTQTAESFRGVSSQFFDAPNGPSVKQVLIEDEW [MII.R.m]”, the Localisation result was “Mitochondria (partial)”.

Consider “MQVTMKSSAVSGQRVGIGRFLHSARRFGRAFVGEIMNS [c.MII.R]”, for which the Localisation result was “Mitochondria”.

The test is the same for the next values; noted with them: targeting of the Venus reporter fused to the peptide, expressed in Chlamydomonas reinhardtii; manual assignment from epifluorescence microscopy; full or partial.
“MGLLLDTLKGAAKDIAGIALEKLKCKITGCKPLTQTAESFRGVSSQFFDAPNGPSVKQVLIEDEW [R2G.K.m]”: the Localisation entry is listed as “Mitochondria (partial)”.

Turning to “MQVTMKSSAVSGQRVAAAAAAAASVRRAQLQVVASSRKQMGRWRSIDAGVDASDDQ [c.AA.c]”, the Localisation entry is “Chloroplast (partial)”.

Turning to “MQVTMKSSAVSGQRVMGLLLDTLKGAAKDIAGIALEKLKCKITGCKPSVRRAQLQVVASSRKQMGRWRSIDAGVDASDDQ [c.R2G.K.c]”, the Localisation entry is “Mitochondria (partial)”.

As for “MQVTMKSSAVSGQRVMSFLTTFKDLAIKAAKSAGQSVLSTLSCKLSNTCLTQTAESFRGVSSQFFDAPNGPSVKQVLIEDEW [c.B2I.K.m]”, the Localisation entry is reported as “Mitochondria”.

Regarding “MKYYGNGVSCNKKGCSVDWGKAIGIIGNNAAANLTTGGKAGWKGLTQTAESFRGVSSQFFDAPNGPSVKQVLIEDEW [EHF.K.m]”, the Localisation entry is listed as “Neither”.

Take “MQVTMKSSAVSGQRVALWMTLLKKVLKAAAKAALNAVLVGANASVRRAQLQVVASSRKQMGRWRSIDAGVDASDDQ [c.DS4.K.c]”: the Localisation entry is on record as “Neither”.

Turning to “MNIVVYWNFTLWHMDINARNAGCDGEGSSVRRAQLQVVASSRKQMGRWRSIDAGVDASDDQ [RP1.K.c]”, the Localisation entry was “Neither”.

As to “MKYYGNGVSCNKKGCSVDWGKAIGIIGNNAAANLTTGGKAGWKGSVRRAQLQVVASSRKQMGRWRSIDAGVDASDDQ [EHF.K.c]”, the Localisation entry was “Chloroplast (partial)”.

Consider “MNIVVYWNFTLWHMDINARNAGCDGEGSLTQTAESFRGVSSQFFDAPNGPSVKQVLIEDEW [RP1.K.m]”, for which the Localisation result is “Neither”.

Consider “MQVTMKSSAVSGQRVMGLFSKFNKKKIKSGLIKIIKTAGKEAGLEALRTGIDVIGCKIKGECLTQTAESFRGVSSQFFDAPNGPSVKQVLIEDEW [c.E1S.K.m]”, for which the Localisation entry was “Chloroplast”.

“MDEVNNDNCRIKFKGDISSESDKMNINYLTQTAESFRGVSSQFFDAPNGPSVKQVLIEDEW [RP2.K.m]”: the Localisation result is “Neither”.

As to “MQVTMKSSAVSGQRVSVRRAQLQVVASSRKQMGRWRSIDAGVDASDDQ [c.-.c]”, the Localisation result is given as “Chloroplast (partial)”.

Take “MGWIRDFGKRIERVGQHTRDATIQTIAVAQQAANVAATLKGLTQTAESFRGVSSQFFDAPNGPSVKQVLIEDEW [S1D.K.m]”: the Localisation entry is reported as “Neither”.

Turning to “MQVTMKSSAVSGQRVFLPLLAGLAANFLPRIFCRITRRCSVRRAQLQVVASSRKQMGRWRSIDAGVDASDDQ [c.B1E.R.c]”, the Localisation result was “Chloroplast”.

Regarding “MQVTMKSSAVSGQRVNIVVYWNFTLWHMDINARNAGCDGEGSSVRRAQLQVVASSRKQMGRWRSIDAGVDASDDQ [c.RP1.K.c]”, the Localisation entry is listed as “Neither”.

With “MALWKTMLKKLGTMALHAGKAAFGAAADTISQLTQTAESFRGVSSQFFDAPNGPSVKQVLIEDEW [DDM.K.m]”, the Localisation result is “Neither”.

On to “MQVTMKSSAVSGQRVMALWKTMLKKLGTMALHAGKAAFGAAADTISQSVRRAQLQVVASSRKQMGRWRSIDAGVDASDDQ [c.DDM.K.c]”, for which the Localisation result is given as “Chloroplast (partial)”.

As for “MQVTMKSSAVSGQRVMGWIRDFGKRIERVGQHTRDATIQTIAVAQQAANVAATLKG [c.S1D.K]”, the Localisation result is listed as “Mitochondria”.

For the sequence “MSFLTTFKDLAIKAAKSAGQSVLSTLSCKLSNTCSVRRAQLQVVASSRKQMGRWRSIDAGVDASDDQ [B2I.K.c]”, the Localisation result is recorded as “Mitochondria”.
